From patent publication EP0315097A2, “Acyl labdane derivatives, process for their preparation and their use as medicines” (HOECHST AKTIENGESELLSCHAFT, priority 1987, dated 1989)
In brackets after ≈: the same amount, converted by molar mass. One block for each compound: values may come before it.

Tests used:
Meerschweinchenvorhof = test: Positive inotropic activity, contraction force of isolated electrically stimulated guinea pig atrium; parameters: species or system Meerschweinchen; settings: isolated left and right atria, Ringer-Lösung, 32 C, contraction force recorded 7 bis 10 Minuten
From the text: Dafür wurde folgende Methode angewandt.
400 g schwere Meerschweinchen beider Geschlechter werden getötet, das Herz entnommen und bei Raumtemperatur in Ringer-Lösung eingebracht. Sowohl der linke als auch der rechte Vorhof werden dann isoliert, an einem Organhalter befestigt und in eine Ringer-Lösung enthaltendes, bei einer Temperatur von 32 C gehaltenes Bad eingebracht. In das Organbad läßt man ein Gemisch von 95 % O2 und 5 % C02 einperlen. Dann stimuliert man den Vorhof elektrisch. Die zu prüfende erfindungsgemäße Verbindung wird in Wasser zu einer Lösung bekannter Konzentration gelöst und dem Bad zugesetzt. Die Kontraktionskraft des Vorhofs wird 7 bis 10 Minuten lang über einen isometrischen Dehnungsmeßstreifen auf einem 4-Kanal-Schreiber von Nihon Kohden registriert. Die Aktivität wird gemäß den erhaltenen Daten als ECso ausgedrückt.
Die bei diesem Modell für repräsentative erfindungsgemäße Verbindungen erhaltenen Ergebnisse sind in der nachfolgenden Tabelle aufgeführt.

wachen Kaninchen = test: Intraocular pressure (IOD) measurement in the conscious rabbit, Schioetz tonometer; type: in vivo; settings: Dosis Prozent 2 (2 %ige Lösung, 100 µl instilled into one eye); for IOD-senkende Wirkung % Abnahme des IOD: decrease calculated from the baseline value; for IOD-senkende Wirkung Dauer: duration of the IOD-lowering effect
From the text: Für diesen Versuch werden 2 bis 3 kg schwere Kaninchen beider Geschlechter verwendet. Der intraokulare Druck (IOD) wird mit einem Schioetz-Tonometer nach Hornhaut-Anästhesie mit 2 %iger Novocainlösung gemessen. Zur Herstellung einer 2 %igen Lösung wird eine erfindungsgemäße Verbindung unter Verwendung der stöchiometrischen Menge 0,1 n-HCI, bzw. deren Salz direkt in Wasser gelöst. Nach Ermittlung des Ausgangswertes werden 100 u.l der Lösung der Testverbindung in eines der Augen, das Vehikel in das andere Auge instilliert. Der IOD wird in bestimmten Zeitabständen, d.h. 0,5; 1, 2, 3, 4 und 5 Stunden gemessen. Die prozentuale Abnahme des IOD wird anhand des Ausgangswertes berechnet.
(§1) Die bei diesem Modell für repräsentative erfindungsgemäße Verbindungen erhaltenen Ergebnisse sind in der nachfolgenden Tabelle aufgeführt: […]

Katze = test: Blood pressure lowering in the anaesthetised cat, femoral artery pressure; type: in vivo; settings: for Abfall d. BD: Chloralose-Narkose; for Dauer: duration of the blood pressure lowering effect
From the text: 3 bis 4 kg schwere Katzen beider Geschlechter werden mit Äther anästhesiert und unter Chloralose-Narkose (70 mgkg i.v.) gehalten. Sowohl die Oberschenkel-Arterie als auch die -Vene werden zur Aufzeichnung des Blutdrucks bzw. zur Verabreichung der Arzneimittel mit Kanülen versehen. Der Blutdruck in der Oberschenkelarterie wird über einen Druckaufnehmer Statham P 23 Db auf einem Nihon-Kohden-Schreiber für physiologische Zwecke ausgezeichnet. Die zu prüfende Verbindung wird in destilliertem Wasser gelöst und intravenös verabreicht. Der Blutdruckabfall und die Dauer der blutdrucksenkenden Wirkung werden notiert.
as §1

EC50 (Meerschweinchenvorhof): 0.79 µg/mL (≈ 1.3 µM)
SMILES: C=C[C@@]1(C)CC(=O)[C@]2(O)[C@@]3(C)[C@@H](O)CCC(C)(C)[C@@H]3[C@H](OC(=O)CCN3CCCCC3)[C@H](OC(=O)N(CC)CC)[C@@]2(C)O1 [R6=CO(CH2)2N[drawing], R7=CON(C2H5)2]

EC50 (Meerschweinchenvorhof): 0.44 µg/mL (≈ 0.742 µM)
SMILES: C=C[C@@]1(C)CC(=O)[C@]2(O)[C@@]3(C)[C@@H](O)CCC(C)(C)[C@@H]3[C@H](OC(=O)CN3CCCCC3)[C@H](OC(=O)N(CC)CC)[C@@]2(C)O1 [R6=COCH2N[drawing], R7=CON(C2H5)2]

EC50 (Meerschweinchenvorhof): 1.6 µg/mL (≈ 2.83 µM)
SMILES: C=C[C@@]1(C)CC(=O)[C@]2(O)[C@@]3(C)[C@@H](O)CCC(C)(C)[C@@H]3[C@H](OC(=O)CN3CCCCC3)[C@H](OC(=O)OCC)[C@@]2(C)O1 [R6=COCH2N[drawing], R7=COOC2H5]

SMILES: C=C[C@@]1(C)CC(=O)[C@]2(O)[C@@]3(C)[C@@H](O)CCC(C)(C)[C@@H]3[C@H](OC(=O)CCN3CCCCC3)[C@H](OC(=O)N(CC)CC)[C@@]2(C)O1 [R6=[drawing], R7=CON(C2H5)2 (the 4th table, row 3)]
IOD-senkende Wirkung % Abnahme des IOD (wachen Kaninchen): 25%
IOD-senkende Wirkung Dauer (wachen Kaninchen): 360 min

SMILES: C=C[C@@]1(C)CC(=O)[C@]2(O)[C@@]3(C)[C@@H](O)CCC(C)(C)[C@@H]3[C@H](OC(=O)CN3CCCCC3)[C@H](OC(=O)N(CC)CC)[C@@]2(C)O1 [R6=[drawing], R7=CON(C2H5)2 (the 4th table, row 5)]
IOD-senkende Wirkung % Abnahme des IOD (wachen Kaninchen): 20%
IOD-senkende Wirkung Dauer (wachen Kaninchen): 420 min

SMILES: C=C[C@@]1(C)CC(=O)[C@]2(O)[C@@]3(C)[C@@H](O)CCC(C)(C)[C@@H]3[C@H](OC(=O)CCN3CCCCC3)[C@H](OC(=O)N(CC)CC)[C@@]2(C)O1 [R6=[drawing], R7=CON(C2H5)2 (the 5th table, row 3)]
Abfall d. BD (Katze; Dosis 1 mg/kg intravenös): 20
Dauer (Katze; Dosis 1 mg/kg intravenös): 60 min

SMILES: C=C[C@@]1(C)CC(=O)[C@]2(O)[C@@]3(C)[C@@H](O)CCC(C)(C)[C@@H]3[C@H](OC(=O)CN3CCCCC3)[C@H](OC(=O)N(CC)CC)[C@@]2(C)O1 [R6=[drawing], R7=CON(C2H5)2 (the 5th table, row 5)]
Abfall d. BD (Katze; Dosis 1 mg/kg intravenös): 50
Dauer (Katze; Dosis 1 mg/kg intravenös): 20 min

SMILES: C=C[C@@]1(C)CC(=O)[C@]2(O)[C@@]3(C)[C@@H](O)CCC(C)(C)[C@@H]3[C@H](OC(=O)CCN3CCCCC3)[C@H](OC(=O)OCC)[C@@]2(C)O1 [R6=[drawing], R7=COOC2H5 (the 4th table, row 2)]
IOD-senkende Wirkung % Abnahme des IOD (wachen Kaninchen): 20%
IOD-senkende Wirkung Dauer (wachen Kaninchen): 300 min

SMILES: C=C[C@@]1(C)CC(=O)[C@]2(O)[C@@]3(C)[C@@H](O)CCC(C)(C)[C@@H]3[C@H](OC(=O)CN3CCCCC3)[C@H](OC(=O)OCC)[C@@]2(C)O1 [R6=[drawing], R7=COOC2H5 (the 4th table, row 4)]
IOD-senkende Wirkung % Abnahme des IOD (wachen Kaninchen): 0%

SMILES: C=C[C@@]1(C)CC(=O)[C@]2(O)[C@@]3(C)[C@@H](O)CCC(C)(C)[C@@H]3[C@H](OC(=O)CCN3CCCCC3)[C@H](OC(=O)OCC)[C@@]2(C)O1 [R6=[drawing], R7=COOC2H5 (the 5th table, row 2)]
Abfall d. BD (Katze; Dosis 1 mg/kg intravenös): 40
Dauer (Katze; Dosis 1 mg/kg intravenös): >20 min

SMILES: C=C[C@@]1(C)CC(=O)[C@]2(O)[C@@]3(C)[C@@H](O)CCC(C)(C)[C@@H]3[C@H](OC(=O)CN3CCCCC3)[C@H](OC(=O)OCC)[C@@]2(C)O1 [R6=[drawing], R7=COOC2H5 (the 5th table, row 4)]
Abfall d. BD (Katze; Dosis 3 mg/kg intravenös): 60
Dauer (Katze; Dosis 3 mg/kg intravenös): 60 min
